In patent US20240319212A1, “METHOD OF MEASURING THE ENDOCYTIC VITAMIN D STATUS” (Immundiagnostik AG, priority 2018, published 2024):
“Also recorded” adds a separate entry of the source.

Tests used:
DBP [1] = biological target: T1, DBP (Homo sapiens, UniProt P02774); details: cited from earlier work
T1 sequence (P02774 17-474): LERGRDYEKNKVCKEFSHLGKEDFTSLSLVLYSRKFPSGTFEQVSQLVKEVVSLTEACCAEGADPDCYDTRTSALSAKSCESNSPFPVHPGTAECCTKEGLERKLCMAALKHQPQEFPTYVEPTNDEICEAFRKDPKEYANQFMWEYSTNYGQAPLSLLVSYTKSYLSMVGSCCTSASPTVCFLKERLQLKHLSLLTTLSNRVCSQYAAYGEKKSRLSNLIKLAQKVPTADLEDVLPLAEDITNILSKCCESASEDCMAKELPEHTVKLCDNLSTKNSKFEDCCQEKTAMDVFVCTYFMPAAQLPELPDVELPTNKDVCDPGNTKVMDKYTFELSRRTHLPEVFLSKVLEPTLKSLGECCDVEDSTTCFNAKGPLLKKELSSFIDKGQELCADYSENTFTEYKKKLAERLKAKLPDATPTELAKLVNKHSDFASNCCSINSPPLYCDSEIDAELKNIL

albumin = albumin (Homo sapiens, UniProt P02768); details: cited from earlier work
megalin M2 fragment = biological target: T2, megalin M2 fragment (Homo sapiens, UniProt P02774+P98164); experiment: Microscale thermophoresis of DBP:VD-metabolite bound by megalin M2 fragment; format: binding; details: M2 titrated; for Kd: labelled DBP 50 nM mixed with metabolite 37.8 nM, read-out: dissociation constant Kd, megalin M2 fragment to complex DBP:vitamin D metabolite
T2 construct: megalin signal peptide (M1-G25) (N, cleaved yes); made in house
T2 sequence (P98164 1024-1429 limits assumed): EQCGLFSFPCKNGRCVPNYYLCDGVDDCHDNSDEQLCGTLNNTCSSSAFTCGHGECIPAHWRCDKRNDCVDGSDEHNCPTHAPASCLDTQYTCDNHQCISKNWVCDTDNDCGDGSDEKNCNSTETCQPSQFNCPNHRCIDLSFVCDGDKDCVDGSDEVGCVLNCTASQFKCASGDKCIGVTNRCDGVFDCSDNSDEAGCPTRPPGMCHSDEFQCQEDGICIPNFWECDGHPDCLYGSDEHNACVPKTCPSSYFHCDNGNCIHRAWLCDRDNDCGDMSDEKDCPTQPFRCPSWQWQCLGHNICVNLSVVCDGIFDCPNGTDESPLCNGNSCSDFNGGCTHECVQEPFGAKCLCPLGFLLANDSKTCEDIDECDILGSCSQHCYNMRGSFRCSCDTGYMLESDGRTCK
T2 sequence (P02774 17-474): T1 sequence (P02774 17-474)
Protocol: Purified megalin M2 was titrated in different concentrations. The dissociation constant Kd was calculated for every condition. The binding affinity was assessed by the dissociation constant Kd.
(§1) Microscale Thermophoresis assay. […] Parameters: laser power, 100%; LED, 80; laser on-time, 30 seconds; laser off-time, 5 seconds; temperature, 25° C. FNorm: normalized fluorescence; Kd: dissociation constant.

DBP [2] = biological target: T1, DBP; experiment: Microscale thermophoresis of DBP and vitamin D metabolites; format: binding; parameters: purchased Merck 345802; details: for binding affinity of vitamin D metabolite to DBP, in words: MST, comparison between metabolites; for Kd: NT-647 labelled DBP, metabolite titrated, read-out: dissociation constant Kd, DBP to vitamin D metabolite
Protocol: The binding properties of DBP and 25(OH)VD3, 25(OH)VD2, 24,25(OH)VD and 3C-epimer of 25(OH)D3 on the one hand and megalin on the other was further examined using microscale thermophoresis. […] The vitamin D metabolites were titrated with different concentrations. The dissociation constant Kd was calculated for every interaction partner. The binding affinity was assessed via the obtained dissociation constant Kd.
as §1

albumin, sequence (P02768 25-609, species assumed): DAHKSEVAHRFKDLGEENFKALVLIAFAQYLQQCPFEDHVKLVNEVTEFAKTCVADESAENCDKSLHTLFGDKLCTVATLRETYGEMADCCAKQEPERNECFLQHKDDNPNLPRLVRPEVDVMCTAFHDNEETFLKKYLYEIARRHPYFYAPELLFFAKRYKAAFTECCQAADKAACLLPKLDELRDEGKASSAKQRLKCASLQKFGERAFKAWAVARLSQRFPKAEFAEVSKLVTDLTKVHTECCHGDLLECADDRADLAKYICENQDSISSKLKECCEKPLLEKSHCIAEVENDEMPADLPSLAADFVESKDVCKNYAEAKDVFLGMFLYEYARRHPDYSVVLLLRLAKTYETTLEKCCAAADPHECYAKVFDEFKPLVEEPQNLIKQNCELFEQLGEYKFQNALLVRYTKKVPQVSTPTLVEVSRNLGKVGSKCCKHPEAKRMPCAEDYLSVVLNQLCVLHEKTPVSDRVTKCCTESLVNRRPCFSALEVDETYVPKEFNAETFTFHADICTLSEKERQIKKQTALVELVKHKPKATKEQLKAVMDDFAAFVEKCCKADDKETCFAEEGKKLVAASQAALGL

Molecule | binding affinity of vitamin D metabolite to DBP, in words (DBP [2]) | Kd (megalin M2 fragment) [nM] | Kd (DBP [2]) [nM] | further results
25-hydroxyvitamin D [25(OH)D] |  |  |  | affinity Ka for DBP (DBP [1]): 7e+08 M⁻¹; affinity Ka for albumin (albumin): 600000 M⁻¹
C=C1CC[C@@H](O)C/C1=C/C=C1\CCC[C@]2(C)[C@@H]([C@H](C)CCCC(C)(C)O)CC[C@@H]12 [3C-epi25(OH)VD3, C3-epimer of 25-hydroxyvitamin D3] | bound most strongly |  |  | affinity of megalin M2 to DBP:metabolite complex, in words (megalin M2 fragment; labelled DBP 50 nM mixed with metabolite): very high affinity; binding affinity of vitamin D metabolite to DBP, in words (DBP [2]; listed as 3C epimer of 25(OH)D3): high binding affinity
C=C1CC[C@H](O)C/C1=C/C=C1\CCC[C@]2(C)[C@@H]([C@H](C)CCC(O)C(C)(C)O)CC[C@@H]12 (stereo partly drawn) [24,25(OH)VD, 24,25-dihydroxyvitamin D] | slightly weaker; also recorded: marginally lower | 171 |  | 
C=C1CC[C@H](O)C/C1=C/C=C1\CCC[C@]2(C)[C@@H]([C@H](C)/C=C/[C@H](C)C(C)(C)O)CC[C@@H]12 [25(OH)VD2, 25-hydroxyvitamin D2] | comparable to Kd of DBP-VD3 | 160 | 2.81 | 
C=C1CC[C@H](O)C/C1=C/C=C1\CCC[C@]2(C)[C@@H]([C@H](C)CCCC(C)(C)O)CC[C@@H]12 [25(OH)VD3, 25-hydroxyvitamin D3] |  | 33.7 | 1.88 | 
